Measurements reported in patent publication US11998539B2, “Substituted aminoquinolones as DGKalpha inhibitors for immune activation” (Bayer Aktiengesellschaft, priority 2019, dated 2024).

biological target: DGKα (Homo sapiens (Human), UniProt P23743); experiment: Human DGKα kinase activity inhibition assay (ADP-Glo); format: biochemical; conditions: recombinant full-length human DGKα, 55 μM ATP, 7 μM 1,2-dioleoyl-sn-glycerol, read-out: IC50 values of examples in in vitro human DGKa kinase activity inhibition assays
Sequence (P23743 other isoform, or with tags, fused parts or gaps): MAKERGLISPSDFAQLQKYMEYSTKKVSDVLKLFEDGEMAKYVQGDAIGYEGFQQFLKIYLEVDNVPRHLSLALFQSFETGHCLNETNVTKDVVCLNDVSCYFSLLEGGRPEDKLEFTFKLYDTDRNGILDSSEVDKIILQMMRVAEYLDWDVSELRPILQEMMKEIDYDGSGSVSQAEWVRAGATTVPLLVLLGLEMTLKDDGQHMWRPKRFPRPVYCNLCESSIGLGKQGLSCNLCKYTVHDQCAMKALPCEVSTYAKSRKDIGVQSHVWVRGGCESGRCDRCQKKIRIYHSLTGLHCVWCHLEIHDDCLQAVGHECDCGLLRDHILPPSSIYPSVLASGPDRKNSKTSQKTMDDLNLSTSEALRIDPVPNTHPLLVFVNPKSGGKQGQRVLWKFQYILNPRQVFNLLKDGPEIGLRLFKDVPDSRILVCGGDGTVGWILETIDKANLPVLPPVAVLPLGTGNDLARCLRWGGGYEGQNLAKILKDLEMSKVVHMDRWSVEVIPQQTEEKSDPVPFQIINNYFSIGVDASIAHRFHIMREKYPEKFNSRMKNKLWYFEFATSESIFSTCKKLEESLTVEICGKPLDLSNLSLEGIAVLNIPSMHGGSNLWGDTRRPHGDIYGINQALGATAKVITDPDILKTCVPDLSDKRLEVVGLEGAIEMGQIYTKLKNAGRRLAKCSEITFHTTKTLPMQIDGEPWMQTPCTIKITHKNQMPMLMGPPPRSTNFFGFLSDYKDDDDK
Procedure, shortened: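 Activity was measured as ADP production, detected by luciferase luminescence after removal of unused ATP. The enzyme was baculovirus-expressed full-length human DGKα with a C-terminal FLAG tag. The substrate was 1,2-dioleoyl-sn-glycerol in detergent micelles, and compounds came from 100× DMSO solutions.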

Row | Compound | IC50
1 | COc1ccc(C2CCN(c3c(C#N)c(=O)n(C)c4ccccc34)CC2)cn1 [Example 142, 4-[4-(6-methoxypyridin-3-yl)piperidin-1-yl]-1-methyl-2-oxo-1,2-dihydroquinoline-3-carbonitrile] | 58 nM
2 | Cc1ccc(C2CCN(c3c(C#N)c(=O)n(C)c4ccccc34)CC2)cn1 [Example 143, 1-methyl-4-[4-(6-methylpyridin-3-yl)piperidin-1-yl]-2-oxo-1,2-dihydroquinoline-3-carbonitrile] | 554 nM
3 | Cn1c(=O)c(C#N)c(N2CCC(c3cccnc3)CC2)c2ccccc21 [Example 144, 1-methyl-2-oxo-4-[4-(pyridin-3-yl)piperidin-1-yl]-1,2-dihydroquinoline-3-carbonitrile] | 897 nM
4 | CNC(=O)c1c(N2CCC(c3nc4ccccc4s3)CC2)c2ccccc2n(C)c1=O [Example 145, 4-[4-(1,3-benzothiazol-2-yl)piperidin-1-yl]-N,1-dimethyl-2-oxo-1,2-dihydroquinoline-3-carboxamide] | 41 nM
5 | Cn1c(C2CCN(c3c(C#N)c(=O)n(C)c4ccccc34)CC2)nc2ccccc21 [Example 147, 1-methyl-4-[4-(1-methyl-1H-benzimidazol-2-yl)piperidin-1-yl]-2-oxo-1,2-dihydroquinoline-3-carbonitrile] | 358 nM
6 | CCCc1noc(C2CCN(c3c(C#N)c(=O)n(C)c4ccccc34)CC2)n1 [Example 148, 1-methyl-2-oxo-4-[4-(3-propyl-1,2,4-oxadiazol-5-yl)piperidin-1-yl]-1,2-dihydroquinoline-3-carbonitrile] | 369 nM
7 | Cn1nccc1C1CCN(c2c(C#N)c(=O)n(C)c3ccccc23)CC1 [Example 149, 1-methyl-4-[4-(1-methyl-1H-pyrazol-5-yl)piperidin-1-yl]-2-oxo-1,2-dihydroquinoline-3-carbonitrile] | 1100 nM
8 | Cn1c(=O)c(C#N)c(N2CCC(c3cnccn3)CC2)c2ccccc21 [Example 150, 1-methyl-2-oxo-4-[4-(pyrazin-2-yl)piperidin-1-yl]-1,2-dihydroquinoline-3-carbonitrile] | 1530 nM
9 | Cn1c(=O)c(C#N)c(N2CCC(O)(c3ccc(Cl)cc3)CC2)c2ccccc21 [Example 151, 4-[4-(4-chlorophenyl)-4-hydroxypiperidin-1-yl]-1-methyl-2-oxo-1,2-dihydroquinoline-3-carbonitrile] | 486 nM
10 | Cn1c(=O)c(C#N)c(N2CCC(O)(c3cccc(C(F)(F)F)c3)CC2)c2ccccc21 [Example 152, 4-{4-hydroxy-4-[3-(trifluoromethyl)phenyl]piperidin-1-yl}-1-methyl-2-oxo-1,2-dihydroquinoline-3-carbonitrile] | 1070 nM
11 | COc1ccc(C2CCN(c3c(C#N)c(=O)n(C)c4c(F)cccc34)CC2)cc1 [Example 153, 8-fluoro-4-[4-(4-methoxyphenyl)piperidin-1-yl]-1-methyl-2-oxo-1,2-dihydroquinoline-3-carbonitrile] | 45 nM
12 | Cn1c(=O)c(C#N)c(N2CCC(c3nc4ccccc4s3)CC2)c2cccc(F)c21 [Example 154, 4-[4-(1,3-benzothiazol-2-yl)piperidin-1-yl]-8-fluoro-1-methyl-2-oxo-1,2-dihydroquinoline-3-carbonitrile] | 34 nM
13 | Cn1c(=O)c(C#N)c(N2CCC(c3nc4ccccc4o3)CC2)c2cccc(F)c21 [Example 155, 4-[4-(1,3-benzoxazol-2-yl)piperidin-1-yl]-8-fluoro-1-methyl-2-oxo-1,2-dihydroquinoline-3-carbonitrile] | 60 nM
14 | Cn1c(=O)c(C#N)c(N2CCC(C)(c3nc4ccccc4o3)CC2)c2cccc(Br)c21 [Example 156, 4-[4-(1,3-benzoxazol-2-yl)-4-methylpiperidin-1-yl]-8-bromo-1-methyl-2-oxo-1,2-dihydroquinoline-3-carbonitrile] | 182 nM
15 | Cn1c(=O)c(C#N)c(N2CCC(c3nc4ccc(Cl)cc4o3)CC2)c2cccc(Br)c21 [Example 157, 8-bromo-4-[4-(6-chloro-1,3-benzoxazol-2-yl)piperidin-1-yl]-1-methyl-2-oxo-1,2-dihydroquinoline-3-carbonitrile] | 252 nM
16 | Cc1ccc2oc(C3(C)CCN(c4c(C#N)c(=O)n(C)c5c(Br)cccc45)CC3)nc2c1 [Example 158, 8-bromo-1-methyl-4-[4-methyl-4-(5-methyl-1,3-benzoxazol-2-yl)piperidin-1-yl]-2-oxo-1,2-dihydroquinoline-3-carbonitrile] | 304 nM
17 | Cn1c(=O)c(C#N)c(N2CCC(c3nc4cc(Cl)ccc4o3)CC2)c2cccc(Br)c21 [Example 159, 8-bromo-4-[4-(5-chloro-1,3-benzoxazol-2-yl)piperidin-1-yl]-1-methyl-2-oxo-1,2-dihydroquinoline-3-carbonitrile] | 383 nM
18 | Cn1c(=O)c(C#N)c(N2CCC(c3nc4cc(F)c(F)cc4o3)CC2)c2cccc(Br)c21 [Example 160, 8-bromo-4-[4-(5,6-difluoro-1,3-benzoxazol-2-yl)piperidin-1-yl]-1-methyl-2-oxo-1,2-dihydroquinoline-3-carbonitrile] | 544 nM

Row | Compound | IC50
19 | Cn1c(=O)c(C#N)c(N2CCC(c3nc4ccccc4o3)CC2)c2cccc(Br)c21 [Example 161, 4-[4-(1,3-benzoxazol-2-yl)piperidin-1-yl]-8-bromo-1-methyl-2-oxo-1,2-dihydroquinoline-3-carbonitrile] | 1100 nM
20 | Cn1c(=O)c(C#N)c(N2CCC(c3nc4ccccc4o3)CC2)c2cccc(Cl)c21 [Example 162, 4-[4-(1,3-benzoxazol-2-yl)piperidin-1-yl]-8-chloro-1-methyl-2-oxo-1,2-dihydroquinoline-3-carbonitrile] | 134 nM
21 | Cc1ccc2oc(C3(C)CCN(c4c(C#N)c(=O)n(C)c5c(C#N)cccc45)CC3)nc2c1 [Example 163, 1-methyl-4-[4-methyl-4-(5-methyl-1,3-benzoxazol-2-yl)piperidin-1-yl]-2-oxo-1,2-dihydroquinoline-3,8-dicarbonitrile] | 146 nM
22 | Cc1ccc2oc(C3(C)CCN(c4c(C#N)c(=O)n(C)c5c(S(C)(=O)=O)cccc45)CC3)nc2c1 [Example 164, 8-(methanesulfonyl)-1-methyl-4-[4-methyl-4-(5-methyl-1,3-benzoxazol-2-yl)piperidin-1-yl]-2-oxo-1,2-dihydroquinoline-3-carbonitrile] | 1.1 nM
23 | Cc1ccc2c(c1)c(N1CCC(c3nc4ccccc4o3)CC1)c(C#N)c(=O)n2C [Example 165, 4-[4-(1,3-benzoxazol-2-yl)piperidin-1-yl]-1,6-dimethyl-2-oxo-1,2-dihydroquinoline-3-carbonitrile] | 2.6 nM
24 | Cc1ccc2oc(C3CCN(c4c(C#N)c(=O)n(C)c5ccc(C)cc45)CC3)nc2c1 [Example 166, 1,6-dimethyl-4-[4-(5-methyl-1,3-benzoxazol-2-yl)piperidin-1-yl]-2-oxo-1,2-dihydroquinoline-3-carbonitrile] | 2.2 nM
25 | COc1ccc(C2CCN(c3c(C#N)c(=O)n(C)c4ccc(Br)cc34)CC2)cc1 [Example 167, 6-bromo-4-[4-(4-methoxyphenyl)piperidin-1-yl]-1-methyl-2-oxo-1,2-dihydroquinoline-3-carbonitrile] | 3.2 nM
26 | Cn1c(=O)c(C#N)c(N2CCC(c3nc4ccccc4o3)CC2)c2cc(Br)ccc21 [Example 168, 4-[4-(1,3-benzoxazol-2-yl)piperidin-1-yl]-6-bromo-1-methyl-2-oxo-1,2-dihydroquinoline-3-carbonitrile] | 0.5 nM
27 | Cn1c(=O)c(C#N)c(N2CCC(c3nc4ccccc4s3)CC2)c2cc(Br)ccc21 [Example 169, 4-[4-(1,3-benzothiazol-2-yl)piperidin-1-yl]-6-bromo-1-methyl-2-oxo-1,2-dihydroquinoline-3-carbonitrile] | 0.6 nM
28 | CC(C)c1ccc2oc(C3CCN(c4c(C#N)c(=O)n(C)c5ccc(Br)cc45)CC3)nc2c1 [Example 170, 6-bromo-1-methyl-2-oxo-4-{4-[5-(propan-2-yl)-1,3-benzoxazol-2-yl]piperidin-1-yl}-1,2-dihydroquinoline-3-carbonitrile] | 7.2 nM
29 | Cc1ccc2oc(C3(C)CCN(c4c(C#N)c(=O)n(C)c5ccc(Br)cc45)CC3)nc2c1 [Example 171, 6-bromo-1-methyl-4-[4-methyl-4-(5-methyl-1,3-benzoxazol-2-yl)piperidin-1-yl]-2-oxo-1,2-dihydroquinoline-3-carbonitrile] | 1.5 nM
30 | COc1ccc(C2CCN(c3c(C#N)c(=O)n(C)c4ccc(C#N)cc34)CC2)cc1 [Example 173, 4-[4-(4-methoxyphenyl)piperidin-1-yl]-1-methyl-2-oxo-1,2-dihydroquinoline-3,6-dicarbonitrile] | 12 nM
31 | Cc1ccc2c(c1)c(N1CCC(c3nc4ccccc4s3)CC1)c(C#N)c(=O)n2C [Example 174, 4-[4-(1,3-benzothiazol-2-yl)piperidin-1-yl]-1,6-dimethyl-2-oxo-1,2-dihydroquinoline-3-carbonitrile] | 1.7 nM
32 | Cn1c(=O)c(C#N)c(N2CCC(c3nc4ccccc4o3)CC2)c2cc(C#N)ccc21 [Example 175, 4-[4-(1,3-benzoxazol-2-yl)piperidin-1-yl]-1-methyl-2-oxo-1,2-dihydroquinoline-3,6-dicarbonitrile] | 4.2 nM
33 | Cn1c(=O)c(C#N)c(N2CCC(c3nc4ccccc4s3)CC2)c2cc(C#N)ccc21 [Example 176, 4-[4-(1,3-benzothiazol-2-yl)piperidin-1-yl]-1-methyl-2-oxo-1,2-dihydroquinoline-3,6-dicarbonitrile] | 3 nM
34 | COc1ccc(C2CCN(c3c(C#N)c(=O)n(C)c4ccc(S(C)(=O)=O)cc34)CC2)cc1 [Example 178, 6-(methanesulfonyl)-4-[4-(4-methoxyphenyl)piperidin-1-yl]-1-methyl-2-oxo-1,2-dihydroquinoline-3-carbonitrile] | 298 nM
35 | COc1ccc(C2CCN(c3c(C#N)c(=O)n(C)c4ccc(C5=CCOCC5)cc34)CC2)cc1 [Example 180, 6-(3,6-dihydro-2H-pyran-4-yl)-4-[4-(4-methoxyphenyl)piperidin-1-yl]-1-methyl-2-oxo-1,2-dihydroquinoline-3-carbonitrile] | 1510 nM
